Measured values as given in patent publication US20240366649A1, “4-ETHYNYL-3-HYDROXY-TETRAHYDROFURANYL-ADENINE PHOSPHORAMIDATES AND RELATED COMPOUNDS AND THEIR USE IN TREATING MEDICAL CONDITIONS” (ROME THERAPEUTICS, INC., priority 2021, published 2024).
Where “and” joins values, the source holds several entries; their conditions need not be identical. Equal entries are not always repeated. One block for each compound: values may come before it.

How the values were obtained:
Format in all cases: cell-based
[1] = test system: IFN production in THP1 TREX1 KO cells; test: Cellular assay for altering IFN production in THP1 TREX1 KO cells; details: for change in IFN levels (figure): FIG. 6-8, % induction versus compound concentration; for EC50 / IC50: Homo sapiens; for Concentration at Max Induct.: lowest concentration at which the maximum-fold IFN induction was observed; for Maximum IFN Induction: maximum-fold IFN induction, 1 μM 5-aza-2′-deoxycytidine; for IC50: inhibitors of IFN
Protocol: (§1) THP1-Dual™ KO-TREX1 cells were purchased from Invivogen (cat #thpd-kotrex). The THP1-Dual™ KO-TREX1 cells were cultured in RPMI 1640, 10% heat-inactivated fetal bovine serum, 25 mM HEPES, 10 μg/mL Blasticidin, and […] Zeocin. THP1-Dual™ KO-TREX cells were treated with a dose titration of test compound in the presence of 1 μM 5-aza-2′-deoxycytidine (Sigma, cat #189825). Type 1 Interferon and cell viability were assessed after five days of treatment.
Stock solution of test compound was prepared in DMSO followed by a three-fold dilution in DMSO. Additional 50× dilution was prepared in cell culture media for each dilution. 10 μL of diluted test compound was then added to a 384-well plate.
(§2) THP1-Dual™ KO-TREX1 cells were treated with 1 μM 5-aza-2′-deoxycytidine. THP1-Dual™ KO-TREX1 cells (50 μL) were added to each well of the 384-well plate containing test compound titration at 10,000 cells/well. Cells were incubated at 37° C., 5% CO2 in a humidified incubator for five days. On day five, 20 μL of cell supernatant was transferred to a 384-well, white-walled plate, followed by addition to each well of 50 μL of QUANTI-LUC solution containing stabilizer. Luminescence was detected on a plate reader according to manufacturer's instructions.
(§3) For certain compounds, the assay was run in a 96-well format, with the following modifications: • 190 μL, instead of 50 μL, of cells were added to each well, to provide 50,000 cells/well, instead of 10,000 cells/well, • Cells were incubated for 6 days, instead of 5 days, • 25 μL, instead of 20 μL, of cell supernatant was added to the white-walled plate for QUANT-LUC treatment; and • 25 μL, instead of 30 μL, of CellTiter-Glo was added to assess cell viability.
Percent inhibition of interferon was calculated using the following analysis: (Average DMSO-Sample)/(Average DMSO-Average 30 μM control reagent)*100. The control reagent for inhibition of interferon was a specific nucleoside reverse-transcriptase inhibitor with molecular weight <600 a.m.u. Percent induction of interferon was calculated using the following analysis: (Sample-Average DMSO)/(10 μM control reagent-Average DMSO)*100. The control reagent for induction of interferon was compound 8 (4′-ethynyl-2-chloro-2′-deoxyadenosine).

[2] = molecular target: T1, LINE1 reverse transcriptase (Homo sapiens, UniProt O00370); test: Transient artificial-intron Cis LINE1 reporter assay; design: expressed in transfected cells; details: HEK 293 cells; ratio FLuc/RLuc reports LINE1 activity; tested up to 100 μM; read-out: IC50 for inhibiting FLuc luminescence
T1 sequence (O00370 whole entry, looked up): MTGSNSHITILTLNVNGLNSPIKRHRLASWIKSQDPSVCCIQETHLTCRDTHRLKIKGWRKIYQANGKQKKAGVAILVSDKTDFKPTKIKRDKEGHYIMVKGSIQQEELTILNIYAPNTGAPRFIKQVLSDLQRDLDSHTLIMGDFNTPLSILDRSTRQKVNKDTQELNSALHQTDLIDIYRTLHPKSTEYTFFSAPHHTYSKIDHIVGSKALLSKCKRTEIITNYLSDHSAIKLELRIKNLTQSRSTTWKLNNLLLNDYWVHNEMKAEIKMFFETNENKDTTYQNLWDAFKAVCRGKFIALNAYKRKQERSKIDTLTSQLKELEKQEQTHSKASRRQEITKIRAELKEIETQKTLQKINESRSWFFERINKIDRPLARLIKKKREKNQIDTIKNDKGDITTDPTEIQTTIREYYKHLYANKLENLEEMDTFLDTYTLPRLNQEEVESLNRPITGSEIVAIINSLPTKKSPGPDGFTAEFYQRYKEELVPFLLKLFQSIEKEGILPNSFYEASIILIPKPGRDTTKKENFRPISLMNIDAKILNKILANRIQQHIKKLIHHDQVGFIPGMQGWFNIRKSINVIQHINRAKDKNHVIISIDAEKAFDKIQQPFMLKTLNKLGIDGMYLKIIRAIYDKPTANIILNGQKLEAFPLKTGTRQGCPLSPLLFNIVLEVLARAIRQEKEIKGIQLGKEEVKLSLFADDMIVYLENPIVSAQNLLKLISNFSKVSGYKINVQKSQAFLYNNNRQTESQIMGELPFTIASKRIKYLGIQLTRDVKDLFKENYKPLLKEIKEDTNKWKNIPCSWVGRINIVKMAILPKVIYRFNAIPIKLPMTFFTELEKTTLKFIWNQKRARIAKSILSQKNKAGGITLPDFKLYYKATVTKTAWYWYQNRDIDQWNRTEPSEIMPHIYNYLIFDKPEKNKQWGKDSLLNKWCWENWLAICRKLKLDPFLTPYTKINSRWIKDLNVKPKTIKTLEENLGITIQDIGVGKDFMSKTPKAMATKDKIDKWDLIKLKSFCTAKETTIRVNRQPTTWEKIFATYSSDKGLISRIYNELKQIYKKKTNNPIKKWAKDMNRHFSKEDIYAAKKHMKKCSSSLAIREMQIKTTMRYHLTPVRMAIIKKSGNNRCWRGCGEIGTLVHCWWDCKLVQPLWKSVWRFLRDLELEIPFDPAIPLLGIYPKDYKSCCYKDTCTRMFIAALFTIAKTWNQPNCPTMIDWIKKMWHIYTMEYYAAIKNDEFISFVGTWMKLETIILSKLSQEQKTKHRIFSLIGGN
Protocol: Intron-disrupted Firefly luciferase (FLuc) expression cassettes were generated as described by Xie, Y. et al. “Characterization of L1 retrotransposition with high-throughput dual-luciferase assays,” Nucleic Acid Res. (2011) Vol. 39, No. 3, e16. In addition, the plasmid contained an intact Renilla luciferase (RLuc) expression cassette on the vector backbone, in order to normalize transfection efficiency and measure potential cell toxicity.
HEK 293 cells were seeded in 96-well plates at 1,000 cells/well in 55 μL and grown for 24 hours. Cells were transfected with FuGeneHD (Promega) following the manufacturer's protocol. Each well received 0.133 ng plasmid, 0.4 μL FuGeneHD reagent, and 4.5 μL GlutaMAX-I-supplemented Opti-MEM I reduced-serum medium (Invitrogen). Cells were simultaneously treated with test compound serially diluted starting at 100 μM in a 3-fold dilution dose response.
Luminescence was measured using the Dual-Glo Luciferase Assay System (Promega) following the manufacturer's instructions. The ratio between FLuc and RLuc gene expression was used to report LINE1 activity.

[3] = molecular target: T1, LINE1 reverse transcriptase; test: Stable artificial-intron Cis LINE1 reporter assay; design: expressed in transfected cells; details: HeLa L1 artificial-intron reporter cells, doxycycline-induced, 72 h, Firefly luciferase activity
Excerpt: A stable HeLa Tet-On 3G (Takara, cat no 631183) cell line expressing a bi-directional inducible LINE1 construct was generated as described in Xie, Y. et al. “Cell division promotes efficient retrotransposition in a stable L1 reporter cell line,” Mobile DNA (2013) 4:10. Single cell clones were screened for high Luciferase expression and the highest expression Firefly expressing clone was chosen for compound testing.
Test compounds were serially diluted in DMSO and spotted in 96-well plates. Subsequently the HeLa L1 artificial-intron reporter cells were plated into the compound-containing wells (8,000 cells/well), and the cells were induced for reporter expression with doxycycline (Sigma cat no D9891) at a final concentration of 500 ng/mL. Luminescence was measured 72 h after plating using the Dual-Glo Luciferase Assay System (Promega cat no E2940) following the manufacturer's instructions. The Firefly Luciferase activity (normalized against its activity in a control well without test compound) was used to report LINE1 activity.

[4] = test system: THP1-Dual™ KO-TREX1 cells; test: CellTiter-Glo cell viability in THP1-Dual KO-TREX1 cells; details: Homo sapiens, 120 h, CellTiter-Glo inhibition of cell viability, after five days of treatment, read-out: CTG IC50
Protocol: as §1, §2, §3
The remaining cells were assessed for cell viability by adding 30 μl of CellTiter-Glo (Promega, G9683) solution to each well, and placed on a shaker for 10 minutes at room temperature. Luminescence was detected on a plate reader, according to manufacturer's instructions. Percent inhibition of cell viability using CellTiter-Glo was calculated using the following analysis: (Average DMSO-Sample)/(Average DMSO-Average 20 μM control reagent)*100. The control reagent was Z-Leu-Leu-leucinal (see, for example, https://pubchem.ncbi.nlm.nib.gov/compound/462382).

[5] = THP-1, 120 h, inducers of IFN, in the presence of 1 μM 5-aza-2′-deoxycytidine, five days
[6] = THP-1, another experiment testing the same compound (not the one of Table 7)
[7] = THP-1, 120 h, in the presence of 1 μM 5-aza-2′-deoxycytidine, five days

Compound: C#C[C@]1(CO)O[C@@H](n2cnc3c(N)nc(Cl)nc32)C[C@@H]1O [Compound 8, 4′-ethynyl-2-chloro-2′-deoxyadenosine, reference compound]
change in IFN levels (figure) [1]: induction of IFN
IC50 [2]: 8.3 nM
IC50 [3]: ≤ 50 nM

Compound: C#C[C@]1(CO[P@@](=O)(N[C@@H](C)C(=O)OC(C)C)Oc2ccccc2)O[C@@H](n2cnc3c(N)nc(Cl)nc32)C[C@@H]1O [Compound I-1, Isopropyl ((S)-(((2R,3S,5R)-5-(6-amino-2-chloro-9H-purin-9-yl)-2-ethynyl-3-hydroxytetrahydrofuran-2-yl)methoxy)(phenoxy)phosphoryl)-L-alaninate]
EC50 [1, 5]: 1000 to 10000 nM
Concentration at Max Induct. [1]: 10 µM
Maximum IFN Induction ([1]; five days): >> (values from 1.50 to 2.00)
IC50 [4]: > 10000 nM
IC50 [3]: 50 to 500 nM and ≤ 50 nM

Compound: C#C[C@]1(CO[P@@](=O)(N[C@@H](C)C(=O)OC(C)C)Oc2ccccc2)O[C@@H](n2cnc3c(N)nc(F)nc32)C[C@@H]1O [Compound I-18]
EC50 [1, 5]: > 10000 nM
IC50 [3]: 50 to 500 nM

Compound: C#C[C@]1(COP(=O)(O)N[C@@H](C)C(=O)OC(C)C)O[C@@H](n2cnc3c(N)nc(Cl)nc32)C[C@@H]1O [Compound I-47, [(2R,3S,5R)-5-(6-amino-2-chloropurin-9-yl)-2-ethynyl-3-hydroxyoxolan-2-yl]methoxy([(2S)-1-isopropoxy-1-oxopropan-2-yl]amino)phosphinic acid]
EC50 [1, 5]: 1000 to 10000 nM
EC50 ([1]; THP-1, experiment depicted in FIG. 11 / FIG. 12): < 1000 nM
EC50 [1, 6]: > 10000 nM
Concentration at Max Induct. [1]: 10 µM
Maximum IFN Induction ([1]; five days): >>> (values greater than 2.00)
IC50 [4]: > 10000 nM
IC50 [3]: ≤ 50 nM

Compound: C#C[C@]1(CO[P@](=O)(N[C@@H](C)C(=O)OC(C)C)Oc2ccccc2)O[C@@H](n2cnc3c(N)nc(F)nc32)C[C@@H]1O [Compound I-54]
EC50 [1, 5]: < 1000 nM
EC50 [1, 6]: > 10000 nM
IC50 [4]: > 10000 nM
IC50 [3]: ≤ 50 nM

Compound: C#C[C@@]12COP(=O)(N[C@@H](C)C(=O)OC(C)C)O[C@H]1C[C@H](n1cnc3c(N)nc(Cl)nc31)O2 (stereo partly drawn) [IV-6, isopropyl (2S)-2-{[(4aR,6R,7aS)-6-(6-amino-2-chloropurin-9-yl)-4a-ethynyl-2-oxo-tetrahydro-2lambda5-furo[3,2-d][1,3,2]dioxaphosphinin-2-yl]amino}propanoate]
IC50 [1, 7]: < 1000 nM
IC50 [4]: 3100 nM
IC50 [3]: 50 to 500 nM

Compound: C#C[C@@]12COP(=O)(N[C@H](C)C(=O)OC(C)C)O[C@H]1C[C@H](n1cnc3c(N)nc(F)nc31)O2 (some centres unmarked) [IV-12]
IC50 [1, 7]: 1000 to 5000 nM
IC50 [4]: > 10000 nM
IC50 [3]: 50 to 500 nM

Compound: Nc1ccn([C@@H]2CS[C@H](CO)O2)c(=O)n1 [lamivudine (3TC), Lamivudine, reference compound]
IC50 [2]: > 100000 nM
IC50 [3]: > 500 nM

Compound: Nc1nc(=O)c2ncn([C@@H]3C[C@H](CO)[C@H]3CO)c2[nH]1 [lobucavir, reference compound]
IC50 [2]: > 100000 nM
IC50 [3]: > 500 nM

The next lines start with results.

IC50 [2]: 41 nM
IC50 [3]: ≤ 50 nM
Compound: C#C[C@]1(CO)O[C@@H](n2cnc3c(N)ncnc32)C[C@@H]1O [4′-ethynyl-2′-deoxyadenosine, reference compound]
change in IFN levels (figure) [1]: induction of IFN

IC50 [2]: > 100000 nM
IC50 [3]: > 500 nM
Compound: Cc1cn([C@H]2C[C@H](N=[N+]=[N-])[C@@H](CO)O2)c(=O)[nH]c1=O [AZT (zidovudine), Zidovudine, reference compound]

EC50 [1, 5]: 1000 to 10000 nM
IC50 [4]: > 10000 nM
IC50 [3]: ≤ 50 nM
Compound: C#C[C@]1(COP(=O)(O)N[C@H](C)C(=O)OC(C)C)O[C@@H](n2cnc3c(N)nc(Cl)nc32)C[C@@H]1O [Compound I-48]
Concentration at Max Induct. [1]: 10 µM
Maximum IFN Induction ([1]; five days): > (values from 1.00 to less than 1.50)

EC50 [1, 5]: > 10000 nM
IC50 [3]: ≤ 50 nM
Compound: C#C[C@]1(COP(=O)(O)N[C@@H](C)C(=O)OC(C)C)O[C@@H](n2cnc3c(N)nc(F)nc32)C[C@@H]1O [Compound I-49]

IC50 [3]: 50 to 500 nM
Compound: C#C[C@]1(COP(=O)(O)N[C@H](C)C(=O)OC(C)C)O[C@@H](n2cnc3c(N)nc(F)nc32)C[C@@H]1O [Compound I-50]

IC50 [3]: > 500 nM
Compound: C#C[C@]1(COP(=O)(N[C@@H](C)C(=O)OC(C)C)OCOC(=O)OC(C)C)O[C@@H](n2cnc3c(N)nc(Cl)nc32)C[C@@H]1O (stereo partly drawn) [I-14 and I-15, isopropyl (2S)-2-({[(2R,3S,5R)-5-(6-amino-2-chloropurin-9-yl)-2-ethynyl-3-hydroxyoxolan-2-yl]methoxy([(isopropoxycarbonyl)oxy]methoxy)phosphoryl}amino)propanoate]

IC50 [3]: 50 to 500 nM
Compound: C#C[C@@]12COP(=O)(OC(C)C)O[C@H]1C[C@H](n1cnc3c(N)nc(Cl)nc31)O2 (some centres unmarked) [IV-1]

EC50 [1, 5]: > 10000 nM
IC50 [3]: 50 to 500 nM
Compound: C#C[C@@]12COP(=O)(N[C@H](C)C(=O)OC(C)C)O[C@H]1C[C@H](n1cnc3c(N)nc(Cl)nc31)O2 (some centres unmarked) [IV-5]

IC50 [3]: ≤ 50 nM
Compound: C#C[C@@]12COP(=O)(OC(C)C)O[C@H]1C[C@H](n1cnc3c(N)nc(F)nc31)O2 (some centres unmarked) [IV-10]

IC50 [1, 7]: < 1000 nM
IC50 [4]: 2500 nM
IC50 [3]: 50 to 500 nM
Compound: C#C[C@@]12COP(=O)(N[C@@H](C)C(=O)OC(C)C)O[C@H]1C[C@H](n1cnc3c(N)nc(F)nc31)O2 (some centres unmarked) [IV-13]

IC50 [2]: > 100000 nM
Compound: Nc1ccn([C@H]2CO[C@@H](CO)S2)c(=O)n1 [apricitabine]
